ChEMBL document CHEMBL6134901 (J Med Chem, 2025)

What was measured:
Clostridioides difficile [1] = assay: Antibacterial activity against Clostridium difficile ATTC43255 assessed as spore germination inhibition at 45 uM incubated for 60 mins by spectrometry relative to control; format: functional; conditions: ATTC43255, 1 h
Clostridioides difficile [2] = assay: Antibacterial activity against Clostridium difficile ATTC43255 incubated for 24 to 48 hrs anaerobically by colony counting method; format: functional; conditions: time 24-48 hrs
[3] = Cytotoxicity against human HepG2 cells incubated for 24 hrs by XTT assay; format: toxicity, cell-based; conditions: read-out: LD50
Clostridioides difficile [4] = assay: Antibacterial activity against Clostridium difficile ATTC43255 assessed as spore germination inhibition incubated for 60 mins by spectrometry; format: functional, organism-based; conditions: ATTC43255, 1 h
[5] = Selectivity index, ratio of LD50 for cytotoxicity against human HepG2 cells to IC50 for antibacterial activity against Clostridium difficile ATTC43255 assessed as spore germination inhibition; format: toxicity, cell-based; conditions: read-out: Ratio LD50/IC50

Row | Compound | inhibition at 45 µM (Clostridioides difficile [1]) [%] | also measured
1 | CC(C)(C)OC(=O)N1CCC(Nc2c[nH]nc2-c2nc(-c3ccc(Oc4ccc(C(F)(F)F)cc4)cc3)no2)CC1 | < 10 | 
2 | CC(C)Oc1ncc(-c2nc(-c3cccc4c3ccn4CCCC(=O)O)no2)cc1Cl [GSK-2018682] | < 10 | 
3 | CCCCOc1ccc(-c2noc(-c3ccc(O)cc3)n2)cc1 | < 10 | 
4 | Oc1ccc(-c2nc(N3CCN(c4cccc(Cl)c4)CC3)no2)cc1 | < 10 | 
5 | CCCCOc1ccc(-c2noc(-c3ccc(CNC(=O)OC(C)(C)C)cc3)n2)cc1 | < 10 | 
6 | CCCCNc1c[nH]nc1-c1nc(-c2ccc(Oc3ccc(C(F)(F)F)cc3)cc2)no1 | < 10 | 
7 | Cc1c(Cl)c(C)[n+]([O-])c(Cl)c1-c1noc(-c2cc(O)c(O)c([N+](=O)[O-])c2)n1 [OPICAPONE] | < 10 | 
8 | O=[N+]([O-])c1ccccc1Oc1ccc(-c2noc(-c3ccc(O)cc3)n2)cc1 | 21 | 
9 | Oc1ccc(-c2nc(-c3ccc(OC4CCOC4)cc3)no2)cc1 (stereo not drawn) | < 10 | 
10 | N[C@H]1CC[C@H](Oc2ccc(-c3noc(-c4ccc(O)cc4)n3)cc2)CC1 | < 10 | 
11 | FC(F)(F)c1ccc(Oc2ccc(-c3noc(-c4cc5ccccc5[nH]4)n3)cc2)cc1 | < 10 | 
12 | Cl.NCc1ccc(-c2nc(-c3ccc(I)cc3)no2)cc1 | 51 | MIC (Clostridioides difficile [2]): 8 µg/mL; CC50 at 24 h [3]: 39 µg/mL; IC50 (Clostridioides difficile [4]): 37 µM; selectivity ratio [5]: 3
13 | FC(F)(F)c1ccc(Oc2ccc(-c3noc(-c4ccc5[nH]ccc5c4)n3)cc2)cc1 | < 10 | 
14 | COc1cc(-c2nc(-c3ccc(Oc4ccc(C(F)(F)F)cc4)cc3)no2)ccc1O | < 10 | 
15 | CN1CCN(c2ccc(-c3noc(-c4ccc(O)cc4)n3)cc2)CC1 | < 10 | 
16 | Oc1ccc(-c2nc(-c3ccc(C(O)C(F)(F)F)cc3)no2)cc1 (stereo not drawn) | < 10 | 
17 | c1nc2cc(-c3nc(-c4ccc(OC5CCCC5)cc4)no3)ccc2[nH]1 | < 10 | 
18 | Oc1ccc(-c2nc(-c3ccc(Oc4ccc(C(F)(F)F)cc4)cc3)no2)cc1 | 14 | 
19 | NCCc1ccc(Oc2cc(-c3noc(-c4ccc(CN)cc4)n3)ccn2)cc1 | 27 | 
20 | CCCCOc1ccc(-c2noc(-c3ccc(CN)cc3)n2)cc1 | 32 | 
21 | NCc1ccc(-c2nc(-c3ccc(OC4CCCCC4)cc3)no2)cc1 | 43 | 
22 | Oc1ccc(-c2nc(-c3ccc(O[C@@H]4CCNC4)cc3)no2)cc1 | < 10 | 
23 | Nc1c[nH]nc1-c1nc(-c2ccc(Oc3ccc(C(F)(F)F)cc3)cc2)no1 | < 10 | 
24 | COc1ccc(-c2nc(-c3ccc(Oc4ccc(C(F)(F)F)cc4)cc3)no2)cc1OC | < 10 | 
